Earlier results, collected in patent publication US12606590B2, “MRNA 5′-end cap analogs, RNA molecule incorporating the same, uses thereof and method of synthesizing RNA molecule or peptide” (Uniwersytet Warszawski, priority 2020, dated 2026).

Settings: in vitro and in vivo; single atom substitution in β position of cap oligophosphate bridge

For `CO[C@@H]1[C@H](O)[C@@H](COP(=O)(O)OP(=O)([S-])OP(=O)(O)OC[C@H]2O[C@@H](n3cnc4c(=O)[nH]c(N)nc43)[C@H](O)[C@@H]2O)O[C@H]1n1c[n+](C)c2c(O)nc(N)nc21` (stereo partly drawn) [β-S-ARCA], the mRNA translation efficiency is given as “significant increase in mRNA translation efficiency”.
